Data: PubChem BioAssay AID330 (DTP/NCI, 2004)
Several values for one entry are separate records, joined by “and”; a condition that tells them apart may be missing. Equal entries are not always repeated. Inconclusive results and toxic doses are left out. Rule for the calls: active = survival T/C of 150% or more; inactive = T/C below 125% in these data.

System: P388 leukemia ip, CD2F1 mice, survival T/C
Test: NCI In Vivo Anticancer Drug Screen. Data for tumor model P388 Leukemia (intraperitoneal) in CD2F1 (CDF1) mice
Details: endpoint: median survival time, higher = longer survival
Outline: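 Mice carrying the transplanted tumor received test compound or vehicle. Survival was recorded in each group, and the value is the treated-group measurement divided by that of the vehicle-treated control group.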

[1] = dose: 50.0 mg/kg/injection, schedule: Q04DX003 (ip), vehicle: saline with Tween-80
[2] = dose: 100.0 mg/kg/injection, schedule: Q04DX003 (ip), vehicle: saline with Tween-80
[3] = dose: 60.0 mg/kg/injection, schedule: Q01DX005 (ip), vehicle: saline with Tween-80
[4] = dose: 120.0 mg/kg/injection, schedule: Q01DX005 (ip), vehicle: saline with Tween-80
[5] = dose: 240.0 mg/kg/injection, schedule: Q01DX005 (ip), vehicle: saline with Tween-80
[6] = dose: 25.0 mg/kg/injection, schedule: Q01DX009 (ip), vehicle: Klucel (hydroxypropylcellulose) (HPC)
[7] = dose: 50.0 mg/kg/injection, schedule: Q01DX009 (ip), vehicle: Klucel (hydroxypropylcellulose) (HPC)
[8] = dose: 50.0 mg/kg/injection, schedule: Q01DX009 (ip), vehicle: saline with Tween-80
[9] = dose: 25.0 mg/kg/injection, schedule: Q01DX009 (ip), vehicle: water
[10] = dose: 50.0 mg/kg/injection, schedule: Q01DX009 (ip), vehicle: water
[11] = dose: 50.0 mg/kg/injection, schedule: Q01DX009 (ip), vehicle: saline
[12] = dose: 100.0 mg/kg/injection, schedule: Q01DX009 (ip), vehicle: saline
[13] = dose: 200.0 mg/kg/injection, schedule: Q01DX009 (ip), vehicle: saline
[14] = dose: 60.0 mg/kg/injection, schedule: Q01DX005 (ip), vehicle: saline
[15] = dose: 120.0 mg/kg/injection, schedule: Q01DX005 (ip), vehicle: saline

Measured: T/C

CC(C)(O)C1OCC(C2CCC3(C)C4=CCC5C(C)(C)C(O)CCC5(C)C4CCC23C)CC1O (stereo not given)
inactive: dose: 2.5 mg/kg/injection, schedule: Q01DX009 (ip), vehicle: alcohol 98 % of control | dose: 5.0 mg/kg/injection, schedule: Q01DX009 (ip), vehicle: alcohol 101 % of control | dose: 10.0 mg/kg/injection, schedule: Q01DX009 (ip), vehicle: alcohol 100 % of control | dose: 20.0 mg/kg/injection, schedule: Q01DX009 (ip), vehicle: alcohol 99 % of control | dose: 40.0 mg/kg/injection, schedule: Q01DX009 (ip), vehicle: alcohol 110 % of control

O=C(Nc1cccc2ccccc12)OCC1CC1
inactive: [1] 98 % of control | [2] 102 % of control | dose: 200.0 mg/kg/injection, schedule: Q04DX003 (ip), vehicle: saline with Tween-80 100 % of control | dose: 400.0 mg/kg/injection, schedule: Q04DX003 (ip), vehicle: saline with Tween-80 100 % of control

N#Cc1ccc(NC(=O)Nc2nccs2)cc1
inactive: dose: 12.5 mg/kg/injection, schedule: Q01DX009 (ip), vehicle: distilled water + Tween-80 108 % of control | dose: 25.0 mg/kg/injection, schedule: Q01DX009 (ip), vehicle: distilled water + Tween-80 117 % of control

COc1ccc(S(=O)(=O)c2coc3ccc(C)cc3c2=O)cc1
inactive: [3] 100 % of control | [4] 96 % of control | [5] 95 % of control

CC(CC(=O)c1ccccc1)=NCCCCN=C(C)CC(=O)c1ccccc1
inactive: dose: 25.0 mg/kg/injection, schedule: Q04DX002 (ip), vehicle: saline with Tween-80 104 % of control | dose: 25.0 mg/kg/injection, schedule: Q04DX003 (ip), vehicle: saline with Tween-80 101 % of control | dose: 50.0 mg/kg/injection, schedule: Q01DX005 (ip), vehicle: saline with Tween-80 91 % of control | dose: 50.0 mg/kg/injection, schedule: Q04DX002 (ip), vehicle: saline with Tween-80 96 % of control | [1] 95 % of control | dose: 100.0 mg/kg/injection, schedule: Q01DX005 (ip), vehicle: saline with Tween-80 95 % of control | dose: 100.0 mg/kg/injection, schedule: Q04DX002 (ip), vehicle: saline with Tween-80 105 % of control | [2] 92 % of control | dose: 200.0 mg/kg/injection, schedule: Q01DX005 (ip), vehicle: saline with Tween-80 88 % of control | dose: 200.0 mg/kg/injection, schedule: Q04DX002 (ip), vehicle: saline with Tween-80 98 % of control

C/C=c1/[nH]c(=O)/c(=C\c2ccccc2)[nH]c1=O
inactive: [6] 89 % of control | [7] 91 % of control | dose: 100.0 mg/kg/injection, schedule: Q01DX009 (ip), vehicle: Klucel (hydroxypropylcellulose) (HPC) 89 % of control

CCOC(=O)C1C(=O)NN(/C=C2\C=CC=CC2=O)C1c1ccc([N+](=O)[O-])cc1 (stereo not given)
inactive: dose: 100.0 mg/kg/injection, schedule: Q04DX002 (ip), vehicle: saline 111 % of control | dose: 200.0 mg/kg/injection, schedule: Q04DX002 (ip), vehicle: saline 93 % of control | dose: 400.0 mg/kg/injection, schedule: Q04DX002 (ip), vehicle: saline 98 % of control

Cc1ccccc1NC(=O)CCC(=O)NS(C)(=O)=O
inactive: dose: 100.0 mg/kg/injection, schedule: Q01DX001 (ip), vehicle: saline with Tween-80 102 % of control | dose: 200.0 mg/kg/injection, schedule: Q01DX001 (ip), vehicle: saline with Tween-80 95 % of control | dose: 400.0 mg/kg/injection, schedule: Q01DX001 (ip), vehicle: saline with Tween-80 95 % of control

CC(=O)Nc1ccc(O)c(O)c1
inactive: [8] 116 % of control and 119 % of control | dose: 100.0 mg/kg/injection, schedule: Q01DX009 (ip), vehicle: saline with Tween-80 120 % of control | dose: 200.0 mg/kg/injection, schedule: Q01DX009 (ip), vehicle: saline with Tween-80 119 % of control

C/C(=N\NC(N)=O)c1cccc(/C(C)=N/NC(N)=O)n1
inactive: dose: 25.0 mg/kg/injection, schedule: Q01DX009 (ip), vehicle: saline with Tween-80 116 % of control | [8] 109 % of control and 118 % of control

CC(=O)C1CC(=O)c2c(O)ccc(O)c2C1 (stereo not given)
inactive: [9] 94 % of control | [10] 96 % of control | dose: 100.0 mg/kg/injection, schedule: Q01DX009 (ip), vehicle: water 89 % of control | dose: 200.0 mg/kg/injection, schedule: Q01DX009 (ip), vehicle: water 111 % of control | dose: 400.0 mg/kg/injection, schedule: Q01DX009 (ip), vehicle: water 109 % of control

CCOC(=O)N(C)C(=O)NC
inactive: [11] 103 % of control and 105 % of control | [12] 103 % of control and 109 % of control | [13] 100 % of control and 104 % of control

CC1=C(C(=O)Nc2ccccc2Cl)C(c2cccc([N+](=O)[O-])c2)C(C(=O)Nc2ccccc2Cl)=C(C)N1
inactive: dose: 15.0 mg/kg/injection, schedule: Q01DX005 (ip), vehicle: Klucel (hydroxypropylcellulose) (HPC) 93 % of control | dose: 30.0 mg/kg/injection, schedule: Q01DX005 (ip), vehicle: Klucel (hydroxypropylcellulose) (HPC) 90 % of control | dose: 60.0 mg/kg/injection, schedule: Q01DX005 (ip), vehicle: Klucel (hydroxypropylcellulose) (HPC) 88 % of control

CC(C)(CN1CCCN(CC(C)(C)C(=O)O)C1=O)C(=O)O
inactive: [11] 93 % of control | [12] 94 % of control | [13] 98 % of control

COC(=O)c1n[nH]n(Cc2cccs2)c1=O (tested in a mixture with another compound)
inactive: dose: 50.0 mg/kg/injection, schedule: Q01DX005 (ip), vehicle: Klucel (hydroxypropylcellulose) (HPC) 108 % of control | dose: 100.0 mg/kg/injection, schedule: Q01DX005 (ip), vehicle: Klucel (hydroxypropylcellulose) (HPC) 103 % of control | dose: 200.0 mg/kg/injection, schedule: Q01DX005 (ip), vehicle: Klucel (hydroxypropylcellulose) (HPC) 97 % of control

CCCCCCCCCCCCCCCC(=O)N(CCCCCCCCCN(CCCN(C)C)C(=O)CCCCCCCCCCCCCCC)CCCN(C)C
inactive: dose: 3.13 mg/kg/injection, schedule: Q01DX009 (ip), vehicle: water 108 % of control | dose: 6.25 mg/kg/injection, schedule: Q01DX009 (ip), vehicle: water 109 % of control | dose: 12.5 mg/kg/injection, schedule: Q01DX009 (ip), vehicle: water 105 % of control | [9] 93 % of control and 96 % of control | [10] 103 % of control

CSc1nc(C)c(C(=O)CCN2CCN(c3ccccn3)CC2)s1
inactive: [14] 104 % of control | [15] 113 % of control

CCOC(=O)C1C(=O)[C@H](C(=O)OC)C2CCCC3CCCC1N32 (stereo not given in full)
inactive: [3] 86 % of control | [4] 87 % of control

CC(=O)CC1C=CCC(CC(O)c2ccccc2)N1C (stereo not given)
inactive: dose: 12.5 mg/kg/injection, schedule: Q01DX005 (ip), vehicle: saline 100 % of control | dose: 25.0 mg/kg/injection, schedule: Q01DX005 (ip), vehicle: saline 105 % of control | dose: 50.0 mg/kg/injection, schedule: Q01DX005 (ip), vehicle: saline 105 % of control

Nc1nc(N)c2c(n1)NCN(OCCOc1ccc(Cl)cc1Cl)C2
inactive: [3] 105 % of control | [4] 90 % of control

C/C(=N\NC1=NCCN1)c1cnn(C2=NCCN2)c1C
inactive: [14] 116 % of control | [15] 108 % of control | dose: 240.0 mg/kg/injection, schedule: Q01DX005 (ip), vehicle: saline 118 % of control

C#CCOC(=O)Nc1nc2ccc(SC#N)cc2s1
inactive: dose: 12.5 mg/kg/injection, schedule: Q01DX009 (ip), vehicle: Klucel (hydroxypropylcellulose) (HPC) 104 % of control | [6] 107 % of control | [7] 107 % of control and 90 % of control

Sc1cn2ccccc2n1
inactive: dose: 50.0 mg/kg/injection, schedule: Q04DX003 (ip), vehicle: saline 105 % of control | dose: 100.0 mg/kg/injection, schedule: Q04DX003 (ip), vehicle: saline 97 % of control | dose: 200.0 mg/kg/injection, schedule: Q04DX003 (ip), vehicle: saline 103 % of control

COc1cccc(C2c3cc4c(cc3OC(N3CCCC3)C2C)OCO4)c1O (stereo not given)
inactive: [3] 103 % of control | [4] 90 % of control | [5] 88 % of control

C(CCc1nnc2c(n1)CCCC2)Cc1nnc2c(n1)CCCC2
inactive: [3] 99 % of control | [4] 88 % of control

CC(=O)NCCn1nc(-c2ccc(Cl)cc2)c(-c2ccc(Cl)cc2)c(C(C)=O)c1=O
inactive: dose: 6.25 mg/kg/injection, schedule: Q01DX005 (ip), vehicle: saline with Tween-80 103 % of control | dose: 12.5 mg/kg/injection, schedule: Q01DX005 (ip), vehicle: saline with Tween-80 103 % of control
